Results reported in ChEMBL document CHEMBL3351875, “Synthesis of Deuterated Benzopyran Derivatives as Selective COX-2 Inhibitors with Improved Pharmacokinetic Properties” (ACS Med Chem Lett, 2014).

Key:
Rattus norvegicus [1] = assay: Half life in Sprague-Dawley rat at 2.5 mg/kg, po measured during 1 to 24 hrs by LC-MS method; format: ADME, organism-based; parameters: dose 2.5 mg/kg, route oral; conditions: in vivo
[2] = Apparent oral clearance in Sprague-Dawley rat at 1 mg/kg, iv measured during 1 to 24 hrs by LC-MS method; format: ADME, organism-based; parameters: dose 1 mg/kg, route oral; conditions: in vivo
Rattus norvegicus [3] = assay: Antiinflammatory activity in orally dosed Sprague-Dawley rat model of carrageenan-induced air pouch inflammation assessed as reduction in PGE2 level by ELISA method; format: functional, organism-based
[4] = Volume of distribution in Sprague-Dawley rat at 1 mg/kg, iv measured during 1 to 24 hrs by LC-MS method; format: ADME, organism-based; parameters: dose 1 mg/kg, route intravenous; conditions: in vivo
Rattus norvegicus [5] = assay: Tmax in Sprague-Dawley rat at 2.5 mg/kg, po measured during 1 to 24 hrs by LC-MS method; format: ADME, organism-based; parameters: dose 2.5 mg/kg, route oral; conditions: in vivo
[6] = Apparent oral clearance in Sprague-Dawley rat at 2.5 mg/kg, po measured during 1 to 24 hrs by LC-MS method; format: ADME, organism-based; parameters: dose 2.5 mg/kg, route oral; conditions: Sprague-Dawley, in vivo
Rattus norvegicus [7] = assay: Half life in Sprague-Dawley rat at 1 mg/kg, iv measured during 1 to 24 hrs by LC-MS method; format: ADME, organism-based; parameters: dose 1 mg/kg, route intravenous; conditions: in vivo
[8] = Oral bioavailability in Sprague-Dawley rat at 2.5 mg/kg measured during 1 to 24 hrs by LC-MS method; format: ADME, organism-based; conditions: Sprague-Dawley, in vivo
[9] = Cmax in Sprague-Dawley rat at 2.5 mg/kg, po measured during 1 to 24 hrs by LC-MS method; format: ADME, organism-based; parameters: dose 2.5 mg/kg, route oral; conditions: in vivo
Rattus norvegicus [10] = assay: AUC (0 to infinity) in Sprague-Dawley rat at 2.5 mg/kg, po measured during 1 to 24 hrs by LC-MS method; format: ADME, organism-based, Plasma; parameters: dose 2.5 mg/kg, route oral, time infinity; conditions: in vivo
Rattus norvegicus [11] = assay: AUC (0 to infinity) in Sprague-Dawley rat at 1 mg/kg, iv measured during 1 to 24 hrs by LC-MS method; format: ADME, organism-based, Plasma; parameters: time infinity, dose 1 mg/kg, route intravenous; conditions: in vivo
[12] = Cmax in Sprague-Dawley rat at 1 mg/kg, iv measured during 1 to 24 hrs by LC-MS method; format: ADME, organism-based; parameters: dose 1 mg/kg, route intravenous; conditions: in vivo
[13] = biological target: Prostaglandin G/H synthase 1 (Homo sapiens, UniProt P23219); assay: Inhibition of human recombinant COX1 pre-incubated for 15 mins before fluorometric substrate addition by fluorescence based assay
[14] = biological target: T1, Prostaglandin G/H synthase 2 (Homo sapiens, UniProt P35354); assay: Inhibition of human recombinant COX2 pre-incubated for 15 mins before fluorometric substrate addition by fluorescence based assay
T1 sequence (P35354 whole entry): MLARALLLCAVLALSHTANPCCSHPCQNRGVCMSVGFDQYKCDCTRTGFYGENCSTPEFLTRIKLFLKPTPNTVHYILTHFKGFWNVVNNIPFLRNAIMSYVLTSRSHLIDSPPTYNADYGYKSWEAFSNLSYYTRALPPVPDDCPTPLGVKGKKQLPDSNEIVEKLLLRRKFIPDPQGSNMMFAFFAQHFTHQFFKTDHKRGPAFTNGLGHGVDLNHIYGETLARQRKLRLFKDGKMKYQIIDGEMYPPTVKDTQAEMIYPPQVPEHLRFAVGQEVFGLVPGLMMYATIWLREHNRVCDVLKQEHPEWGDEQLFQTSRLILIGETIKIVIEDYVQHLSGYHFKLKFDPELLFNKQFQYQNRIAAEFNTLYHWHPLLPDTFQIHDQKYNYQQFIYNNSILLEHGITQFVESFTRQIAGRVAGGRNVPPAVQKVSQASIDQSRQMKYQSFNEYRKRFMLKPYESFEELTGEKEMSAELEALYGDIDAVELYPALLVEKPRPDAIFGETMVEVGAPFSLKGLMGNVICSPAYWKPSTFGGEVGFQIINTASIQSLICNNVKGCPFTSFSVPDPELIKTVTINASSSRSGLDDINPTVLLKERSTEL

[15] = Oral bioavailability in Sprague-Dawley rat at 25 mg/kg measured during 1 to 24 hrs by LC-MS method; format: ADME, organism-based; conditions: in vivo
[16] = AUC (0 to infinity) in Sprague-Dawley rat at 5 mg/kg, iv measured during 1 to 24 hrs by LC-MS method; format: ADME, organism-based, Plasma; parameters: time infinity, dose 5 mg/kg, route intravenous; conditions: Sprague-Dawley, plasma
Rattus norvegicus [17] = assay: Volume of distribution in Sprague-Dawley rat at 25 mg/kg, po measured during 1 to 24 hrs by LC-MS method; format: ADME, organism-based; parameters: dose 25 mg/kg, route oral; conditions: in vivo
[18] = Volume of distribution in Sprague-Dawley rat at 5 mg/kg, iv measured during 1 to 24 hrs by LC-MS method; format: ADME, organism-based; parameters: dose 5 mg/kg, route intravenous; conditions: in vivo
[19] = AUC (0 to infinity) in Sprague-Dawley rat at 25 mg/kg, po measured during 1 to 24 hrs by LC-MS method; format: ADME, organism-based; parameters: time infinity, dose 25 mg/kg, route oral; conditions: plasma
Rattus norvegicus [20] = assay: Half life in Sprague-Dawley rat at 5 mg/kg, iv measured during 1 to 24 hrs by LC-MS method; format: ADME, organism-based; parameters: dose 5 mg/kg, route intravenous; conditions: in vivo
[21] = Apparent oral clearance in Sprague-Dawley rat at 5 mg/kg, iv measured during 1 to 24 hrs by LC-MS method; format: ADME, organism-based; parameters: dose 5 mg/kg, route oral; conditions: in vivo
[22] = Cmax in Sprague-Dawley rat at 5 mg/kg, iv measured during 1 to 24 hrs by LC-MS method; format: ADME, organism-based; parameters: dose 5 mg/kg, route intravenous; conditions: in vivo
[23] = Apparent oral clearance in Sprague-Dawley rat at 25 mg/kg, po measured during 1 to 24 hrs by LC-MS method; format: ADME, organism-based; parameters: dose 25 mg/kg, route oral; conditions: in vivo
[24] = Half life in Sprague-Dawley rat at 25 mg/kg, po measured during 1 to 24 hrs by LC-MS method; format: ADME, organism-based; parameters: dose 25 mg/kg, route oral; conditions: in vivo
[25] = Tmax in Sprague-Dawley rat at 25 mg/kg, po measured during 1 to 24 hrs by LC-MS method; format: ADME, organism-based; parameters: dose 25 mg/kg, route oral; conditions: in vivo
[26] = Cmax in Sprague-Dawley rat at 25 mg/kg, po measured during 1 to 24 hrs by LC-MS method; format: ADME, organism-based; parameters: dose 25 mg/kg, route oral; conditions: in vivo
[27] = Apparent oral clearance in Sprague-Dawley rat at 10 mg/kg, po measured during 1 to 24 hrs by LC-MS method; format: ADME, organism-based; parameters: dose 10 mg/kg, route oral; conditions: Sprague-Dawley, in vivo
[28] = AUC (0 to infinity) in Sprague-Dawley rat at 10 mg/kg, po measured during 1 to 24 hrs by LC-MS method; format: ADME, organism-based, Plasma; parameters: time infinity, dose 10 mg/kg, route oral; conditions: Sprague-Dawley, plasma
Rattus norvegicus [29] = assay: Antinociceptive activity in orally dosed Sprague-Dawley rat model of carrageenan-induced foot paw hyperalgesia assessed as paw withdrawal latency; format: functional, organism-based
Rattus norvegicus [30] = assay: Antiinflammatory activity in orally dosed Sprague-Dawley rat model of carrageenan-induced foot paw edema assessed as reduction in edema by plethysmometry; format: functional, organism-based
Rattus norvegicus [31] = assay: Volume of distribution in Sprague-Dawley rat at 10 mg/kg, po measured during 1 to 24 hrs by LC-MS method; format: ADME, organism-based; parameters: dose 10 mg/kg, route oral; conditions: in vivo
[32] = Oral bioavailability in Sprague-Dawley rat at 10 mg/kg measured during 1 to 24 hrs by LC-MS method; format: ADME, organism-based; conditions: Sprague-Dawley, in vivo
Rattus norvegicus [33] = assay: Antiarthritic activity in Lewis rat model of adjuvant-induced arthritis administrated by oral gavage once daily; format: functional

Prostaglandin G/H synthase 1, sequence (P23219 whole entry): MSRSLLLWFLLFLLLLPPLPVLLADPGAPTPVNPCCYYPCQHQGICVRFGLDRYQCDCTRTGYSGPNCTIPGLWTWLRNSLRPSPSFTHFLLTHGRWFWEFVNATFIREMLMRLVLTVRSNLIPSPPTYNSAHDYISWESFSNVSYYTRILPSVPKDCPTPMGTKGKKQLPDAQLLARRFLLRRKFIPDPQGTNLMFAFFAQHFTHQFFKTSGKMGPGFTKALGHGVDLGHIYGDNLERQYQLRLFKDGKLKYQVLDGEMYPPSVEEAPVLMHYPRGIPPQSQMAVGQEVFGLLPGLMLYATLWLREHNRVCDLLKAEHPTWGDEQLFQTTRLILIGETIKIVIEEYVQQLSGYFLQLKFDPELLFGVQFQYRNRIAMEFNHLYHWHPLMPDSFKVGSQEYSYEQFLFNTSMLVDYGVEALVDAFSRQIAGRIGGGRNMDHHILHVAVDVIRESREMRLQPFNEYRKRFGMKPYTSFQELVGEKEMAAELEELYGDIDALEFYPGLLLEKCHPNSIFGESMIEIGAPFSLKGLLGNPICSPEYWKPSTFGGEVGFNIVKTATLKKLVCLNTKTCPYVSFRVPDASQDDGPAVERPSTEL

For `Cc1cc(Cl)cc2c1OC(C(F)(F)F)C(C(=O)O)=C2` (configuration not stated), the t1/2 (Rattus norvegicus [1]) was 1.75 h, the CL/F [2] was 0.706 L/h/kg and the EC50 (Rattus norvegicus [3]) was 0.61 mg/kg. The Vd [4] was 0.59 L/kg, the Tmax (Rattus norvegicus [5]) was 0.25 h and the CL/F [6] was 0.547 L/h/kg. The t1/2 (Rattus norvegicus [7]) was 0.59 h, the bioavailability [8] was 128% and the Cmax [9] was 2.72 µg/mL. The AUC (Rattus norvegicus [10]) was 4.627624 µg·h/mL, the AUC (Rattus norvegicus [11]) was 1.440446 µg·h/mL and the Cmax [12] was 4.13 µg/mL.
`[2H]C([2H])([2H])c1c(Br)c2c(c(C([2H])([2H])[2H])c1Br)C=C(C(=O)O)C(C(F)(F)F)O2` (configuration not stated) gave an IC50 [13] of over 100 µM.
`Cc1c(Br)c(C)c2c(c1Br)OC(C(F)(F)F)C(C(=O)O)=C2` (configuration not stated) showed an IC50 [14] of 0.069 µM and an IC50 [13] of over 100 µM.
Molecule `CCc1cc(OC(F)(F)F)cc2c1OC(C(F)(F)F)C(C(=O)O)=C2` (configuration not stated) has a bioavailability [15] of 78.6%, an AUC(0-inf) [16] of 131 µg·h/mL and a Vd (Rattus norvegicus [17]) of 0.678 L/kg. The Vd [18] was 0.301 L/kg, the AUC(0-inf) [19] was 511 µg·h/mL and the t1/2 (Rattus norvegicus [20]) was 5.446 h. For the same molecule, the CL/F [21] was 0.038 L/h/kg, the Cmax [22] was 37.2 µg/mL and the CL/F [23] was 0.049 L/h/kg. For the same molecule, the half-life [24] was 9.54 h, the Tmax [25] was 1.62 h and the IC50 [13] was over 100 µM. For the same molecule, the Cmax [26] was 29.5 µg/mL.
`Cc1cc(Cl)c2c(c1)C=C(C(=O)O)C(C(F)(F)F)O2` (configuration not stated) gave an IC50 [13] of over 100 µM.
`[2H]C([2H])([2H])c1cc2c(c(C([2H])([2H])[2H])c1Br)C=C(C(=O)O)C(C(F)(F)F)O2` (configuration not stated) showed an AUC(0-inf) [16] of 37.9 µg·h/mL, a CL/F [27] of 0.125 L/h/kg and an AUC(0-inf) [28] of 84.8 µg·h/mL. The EC50 (Rattus norvegicus [29]) was 3.82 mg/kg, the EC50 (Rattus norvegicus [30]) was 2.26 mg/kg and the EC50 (Rattus norvegicus [3]) was 0.57 mg/kg. For the same molecule, the Vd [18] was 0.529 L/kg, the t1/2 (Rattus norvegicus [20]) was 2.733 h and the Vd (Rattus norvegicus [31]) was 0.57 L/kg. It also gave a CL/F [21] of 0.135 L/h/kg, a bioavailability [32] of 112% and an IC50 [14] of 0.043 µM. The Cmax [22] was 26.2 µg/mL.
`[2H]C([2H])([2H])c1cc(Cl)cc2c1O[C@H](C(F)(F)F)C(C(=O)O)=C2` showed an IC50 [13] of over 100 µM.
For `Cc1ccc(-c2cc(C(F)(F)F)nn2-c2ccc(S(N)(=O)=O)cc2)cc1` [CELECOXIB], the ED50 (Rattus norvegicus [33]) was 1.57 mg/kg, the EC50 (Rattus norvegicus [29]) was 5 mg/kg and the EC50 (Rattus norvegicus [30]) was 2.81 mg/kg. For the same molecule, the EC50 (Rattus norvegicus [3]) was 0.69 mg/kg.
